According to patent publication US20120322869A1, “ESTER COMPOUND AND USE THEREOF” (SUMITOMO CHEMICAL COMPANY, LIMITED, priority 2010, published 2012):

Tests used:
[1] = test system: German cockroaches (Blattella germanica); assay: Spray knock-down test with 0.1% (w/v) oil solution on German cockroaches (Test Example 2); type: in vivo; conditions: adult Blattella germanica, 1.5 ml of 0.1% (w/v) oil solution sprayed
Experimental: Zero point one (0.1) part of the compound of the present inventions (1) and (2) was dissolved in 10 parts of isopropyl alcohol and the solution was mixed with 89.9 parts of deodorized kerosene to prepare a 0.1% (w/v) oil solution.
Ten adult German cockroaches (Blattella germanica, 5 males and 5 females) were released in a test container (diameter 8.75 cm, 7.5 cm high, the bottom face is made of 16 mesh metallic wire), the inner face on which butter was applied, and the container was set at the bottom of a test chamber (bottom face: 46 cm×46 cm, height: 70 cm).
Each 1.5 ml of the oil solution of the compound of the present invention (1) and (2) was sprayed using a spray gun at a pressure of 0.4 kg/cm^2 from 60 cm higher than the upper face of the container. Thirty seconds after the spraying, the container was pulled out from the chamber. Two minutes after spraying, the number of knocked-down […] was counted and a knock-down ratio was determined. A knocked-down ratio was calculated by the following equation.
Knocked-down ratio=(Number of knocked-down cockroaches/Number of test cockroaches)×100

[2] = test system: American cockroaches (Periplaneta americana); assay: Spray knock-down test with 0.1% (w/v) oil solution on American cockroaches (Test Example 1); type: in vivo; conditions: adult Periplaneta americana, 1.5 ml of 0.1% (w/v) oil solution sprayed
Experimental: Zero point one (0.1) part of the compound of the present inventions (1) was dissolved in 10 parts of isopropyl alcohol and the solution was mixed with 89.9 parts of deodorized kerosene to prepare a 0.1% (w/v) oil solution.
Six adult American cockroaches (Periplaneta americana, 3 males and 3 females) were released in a test container (diameter 12.5 cm, 10 cm high, the bottom face is made of 16 mesh metallic wire), the inner face on which butter was applied, and the container was set at the bottom of a test chamber (bottom face: 46 cm×46 cm, height: 70 cm). Each 1.5 ml of the oil solution of the compound of the present invention (1) was sprayed using a spray gun at a pressure of 0.4 kg/cm^2 from 60 cm higher than the upper face of the container. Thirty seconds after the spraying, the container was pulled out from the chamber. After a prescribed time, the number of knocked-down cockroaches was counted and a knock-down ratio was determined (repeated twice). The knocked-down ratio was calculated by the following equation.
Knocked-down ratio (%) (Number of knocked-down cockroaches/Number of test cockroaches)×100

Row | SMILES | Knock-down ratio (%) 2 minutes after spraying [1] [%] | Knock-down ratio (%) 5 minutes after spraying [2] [%]
1 | C=CCC1=C(C)C(OC(=O)[C@@H]2[C@@H](C=C(C#N)SC)C2(C)C)CC1=O (relative stereo) [compound of the present invention (2), 2-methyl-3-(2-propenyl)cyclopent-2-en-4-on-1-yl=(1R)-trans-3-[(1EZ)-2-cyano-2-(methylthio)ethenyl]-2,2-dimethylcyclopropanecarboxylate] | 100 | –
2 | C#CCC1=C(C)[C@@H](OC(=O)[C@@H]2[C@@H](/C=C(\C#N)SC)C2(C)C)CC1=O [compound of the present invention (1), (S)-2-methyl-3-(2-propynyl)cyclopent-2-en-4-on-1-yl=(1R)-trans-3-[(1E)-2-cyano-2-(methylthio)ethenyl]-2,2-dimethylcyclopropane carboxylate] | 100 | 100
